Data: the supplement of paper PMC10307832

Columns and labels:
Assay in all cases: relative viability (nuclei count vs DMSO), 5 days (fraction); higher = more cells survive
Kobe2602 + Palbociclib = compound: C1=CC(=CC=C1NC(=S)NNC2=C(C=C(C=C2[N+](=O)[O-])C(F)(F)F)[N+](=O)[O-])F [Kobe2602] + CC(=O)c1c(C)c2cnc(Nc3ccc(N4CCNCC4)cn3)nc2n(C2CCCC2)c1=O [Palbociclib] (partner 0.5 µM)
Method in brief: (§1)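 Relative viability divides the nuclei count in treated wells by that in vehicle wells. Lung cancer cell lines were seeded in 1536-well plates, dosed by pin tool the next day, and fixed and stained after 5 days in one step with final 0.05% Triton X-100, 1% formaldehyde and 1 ug/ml Hoechst. Dosing was a single drug or a fixed anchor-drug dose plus five library-drug doses (not always all listed) in √10 steps, and values are medians of duplicate plates imaged at 4×.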

[1] = compound: COc1cc2nccc(Oc3ccc(NC(=O)C4(C(=O)Nc5ccc(F)cc5)CC4)cc3)c2cc1OC [Cabozantinib] + N=C(N)NC(=N)NCCc1ccccc1 [Phenformin] (partner 250 µM)
Method in brief: as §1

Cabozantinib + Olaparib = compound: COc1cc2nccc(Oc3ccc(NC(=O)C4(C(=O)Nc5ccc(F)cc5)CC4)cc3)c2cc1OC [Cabozantinib] + O=C(c1cc(Cc2n[nH]c(=O)c3ccccc23)ccc1F)N1CCN(C(=O)C2CC2)CC1 [Olaparib] (partner 8 µM)
Method in brief: as §1

Zosuquidar + Phenformin = compound: O[C@@H](COc1cccc2ncccc12)CN1CCN([C@@H]2c3ccccc3[C@@H]3[C@H](c4ccccc42)C3(F)F)CC1 [Zosuquidar] + N=C(N)NC(=N)NCCc1ccccc1 [Phenformin] (partner 250 µM)
Method in brief: as §1

| Cell Line | relative viability (Kobe2602 + Palbociclib; first compound 0.2 µM) | relative viability (Kobe2602 + Palbociclib; first compound 0.6325 µM) | relative viability (Kobe2602 + Palbociclib; first compound 2 µM) | relative viability (Kobe2602 + Palbociclib; first compound 6.325 µM) | relative viability (Kobe2602 + Palbociclib; first compound 20 µM) | relative viability ([1]; first compound 0.02 µM) | relative viability ([1]; first compound 0.06325 µM) | relative viability ([1]; first compound 0.2 µM) | relative viability ([1]; first compound 0.6325 µM) | relative viability ([1]; first compound 2 µM) | relative viability (Cabozantinib + Olaparib; first compound 0.02 µM) | relative viability (Cabozantinib + Olaparib; first compound 0.06325 µM) | relative viability (Cabozantinib + Olaparib; first compound 0.2 µM) | relative viability (Cabozantinib + Olaparib; first compound 0.6325 µM) | relative viability (Cabozantinib + Olaparib; first compound 2 µM) | relative viability (Zosuquidar + Phenformin; first compound 0.01 µM) | relative viability (Zosuquidar + Phenformin; first compound 0.03162 µM) | relative viability (Zosuquidar + Phenformin; first compound 0.1 µM) | relative viability (Zosuquidar + Phenformin; first compound 0.3162 µM) | relative viability (Zosuquidar + Phenformin; first compound 1 µM) |
| --- | --- | --- | --- | --- | --- | --- | --- | --- | --- | --- | --- | --- | --- | --- | --- | --- | --- | --- | --- | --- |
| NCI-H1993 | 0.679 | 0.543 | 0.48 | 0.589 | 0.525 | 0.448 | 0.521 | 0.511 | 0.473 | 0.476 | 1.03 | 0.975 | 0.75 | 0.785 | 0.981 | 0.422 | 0.596 | 0.438 | 0.476 | 0.533 |
| NCI-H522 | 1.13 | 1.1 | 0.915 | 1.11 | 0.993 | 0.692 | 0.657 | 0.633 | 0.637 | 0.716 | 0.714 | 0.667 | 0.584 | 0.625 | 0.648 | 0.654 | 0.606 | 1.07 | 0.682 | 0.62 |
| LCLC-103H | 0.504 | 0.518 | 0.537 | 0.539 | 0.491 | 0.296 | 0.354 | 0.27 | 0.371 | 0.306 | 0.77 | 0.796 | 0.779 | 0.79 | 0.729 | 0.306 | 0.314 | 0.255 | 0.356 | 0.331 |
| HCC-78 | 0.522 | 0.446 | 0.479 | 0.535 | 0.52 | – | 0.733 | 0.335 | 0.383 | 0.383 | – | 0.886 | 0.753 | 0.443 | 0.405 | 0.801 | 0.71 | – | 0.707 | 0.558 |
| NCI-H1975 | 0.668 | 0.599 | 0.613 | 0.544 | 0.631 | 0.408 | 0.462 | 0.386 | 0.423 | 0.399 | 0.881 | 0.916 | 0.892 | 0.786 | 0.679 | 0.397 | 0.378 | 0.417 | 0.42 | 0.399 |
